Reference: article PMC6265310, “Purification, Characterization and in vitro Evaluation of Polymyxin A From Paenibacillus dendritiformis: An Underexplored Member of the Polymyxin Family” (Frontiers in Microbiology, 2018)
Where two headings read alike, the source gives them in different places.

Assays:
[1] = test system: human leukemic monocyte cell line (THP-1 ATCC TIB-202); type: cell-based; conditions: THP-1 cells, MTT, 62.5 to 1000 μg/ml
Description: (§1) 3-(4,5-dimethylthiazol-2-yl)-2,5-diphenyltetrazolium bromide (MTT) assay was employed to examine the cytotoxicity against human leukemic monocyte cell line (THP-1 ATCC TIB-202) and human embryonic kidney cell line (HEK293 ATCC CRL-1573) as explained by [Kaur et al. (2017)]. Toxicity of both compounds was compared with polymyxin B and colistin at concentrations ranging from 62.5 to1000 μg/ml.

[2] = test system: Vibrio cholerae MTCC 3906
[3] = test system: Vibrio parahaemolyticus ATCC17802
[4] = test system: Klebsiella pneumoniae ATCC BAA1706; conditions: Klebsiella pneumoniae ATCC BAA1706
[5] = test system: Bacillus subtilis ATCC 6633; conditions: Bacillus subtilis ATCC 6633
[6] = test system: Escherichia coli ATCC 35218; conditions: Escherichia coli ATCC 35218
[7] = test system: Enterococcus faecalis ATCC 51299; conditions: Enterococcus faecalis ATCC 51299
P. aeruginosa ATCC 27853 = experiment: Time-kill kinetics; type: cell-based; conditions: P. aeruginosa ATCC 27853, 2xMIC
[8] = test system: Staphylococcus aureus ATCC 25923; conditions: Staphylococcus aureus ATCC 25923
[9] = test system: Escherichia coli ATCC 25922; conditions: Escherichia coli ATCC 25922
[10] = test system: Klebsiella pneumoniae ATCC 29665; conditions: Klebsiella pneumoniae ATCC 29665
[11] = test system: Klebsiella pneumoniae ATCC- BAA 2146; conditions: Klebsiella pneumoniae ATCC- BAA 2146
[12] = test system: Pseudomonas aeruginosa ATCC 27853; conditions: Pseudomonas aeruginosa ATCC 27853
[13] = test system: Klebsiella pneumoniae ATCC 700603; conditions: Klebsiella pneumoniae ATCC 700603
[14] = test system: LPS (E. coli strain 055:B5 origin); type: binding; conditions: read-out: Dissociation constant (Kd)
[15] = test system: Acinetobacter baumannii ATCC 19606; conditions: Acinetobacter baumannii ATCC 19606; Ca-MHB, 37°C, 20–24 h
[16] = test system: human embryonic kidney cell line (HEK293 ATCC CRL-1573); type: cell-based; conditions: HEK293 cells, MTT, 62.5 to 1000 μg/ml
Description: as §1

Substance: polymyxin B [PB, reference compound]
- MIC (P. aeruginosa PA6): 2 µg/mL
- MIC (E. coli 9062): 1 µg/mL
- IC50 [1]: 125 µg/mL
- MIC [2]: 8 µg/mL
- MIC (K. Pneumoniae GMCH 16): 0.5 µg/mL
- MIC (E. coli 14504): 1 µg/mL
- MIC [3]: 1 µg/mL
- MIC (P. aeruginosa GMCH06): 1 µg/mL
- MIC (E. coli 7534): 1 µg/mL
- MIC (E. coli 13425): 1 µg/mL
- MIC [4]: 1 µg/mL
- MIC [5]: 4 µg/mL
- MIC [6]: 0.5 µg/mL
- MIC (A. baumannii AB1): 1 µg/mL
- MIC [7]: >16 µg/mL
- MIC (K. Pneumoniae B8): 1 µg/mL
- MIC (K. Pneumoniae GMCH12): 1 µg/mL
- MIC (A. baumannii GMCH18): 1 µg/mL
- time to kill (P. aeruginosa ATCC 27853): 2 h
- MIC (A. baumannii GMCH 14): 1 µg/mL
- MIC [8]: 16 µg/mL
- MIC (E. coli 3185): 0.5 µg/mL
- MIC [9]: 1 µg/mL
- MIC (P. aeruginosa PA3): 2 µg/mL
- MIC [10]: 1 µg/mL
- MIC (P. aeruginosa PA1): 2 µg/mL
- MIC (P. aeruginosa PA5): 2 µg/mL
- MIC (K. Pneumoniae GMCH13): 1 µg/mL
- MIC (K. Pneumoniae 827): 1 µg/mL
- MIC (E. coli 7210): 1 µg/mL
- MIC (A. baumannii AB2): 1 µg/mL
- MIC (E. coli 14363): 0.5 µg/mL
- MIC [11]: 1 µg/mL
- MIC (K. Pneumoniae GMCH10): 1 µg/mL
- MIC [12]: 1 µg/mL
- MIC (E. coli 14084): 0.5 µg/mL
- MIC (K. Pneumoniae 1428): 2 µg/mL
- MIC [13]: 1 µg/mL
- MIC (P. aeruginosa PA2): 2 µg/mL
- Kd [14]: 3.39 µM
- MIC (K. Pneumoniae 1573): 1 µg/mL
- MIC (P. aeruginosa PA4): 1 µg/mL
- MIC [15]: 1 µg/mL
- MIC (K. Pneumoniae GMCH04): 0.5 µg/mL
- MIC (A. baumannii GMCH05): 1 µg/mL
- MIC (E. coli 7932): 1 µg/mL
- MIC (K. Pneumoniae GMCH11): 1 µg/mL

Substance: polymyxin E (colistin) [PE, reference compound]
- MIC (P. aeruginosa PA6; P. aeruginosa PA6, MDR clinical isolate): 2 µg/mL
- MIC (E. coli 9062; E. coli 9062, MDR clinical isolate): 1 µg/mL
- IC50 [1]: > 250 µg/mL
- IC50 [16]: above 1000 μg/ml
- MIC [2]: >16 µg/mL
- MIC (K. Pneumoniae GMCH 16; K. Pneumoniae GMCH 16, MDR clinical isolate): 1 µg/mL
- MIC (E. coli 14504; E. coli 14504, MDR clinical isolate): 1 µg/mL
- MIC [3]: 1 µg/mL
- MIC (P. aeruginosa GMCH06; P. aeruginosa GMCH06, MDR clinical isolate): 1 µg/mL
- MIC (E. coli 7534; E. coli 7534, MDR clinical isolate): 0.5 µg/mL
- MIC (E. coli 13425; E. coli 13425, MDR clinical isolate): 1 µg/mL
- MIC [4]: 0.5 µg/mL
- MIC [5]: 16 µg/mL
- MIC [6]: 0.5 µg/mL
- MIC (A. baumannii AB1; A. baumannii AB1, MDR clinical isolate): 1 µg/mL
- MIC [7]: >16 µg/mL
- MIC (K. Pneumoniae B8; K. Pneumoniae B8, MDR clinical isolate): 1 µg/mL
- MIC (K. Pneumoniae GMCH12; K. Pneumoniae GMCH12, MDR clinical isolate): 1 µg/mL
- MIC (A. baumannii GMCH18; A. baumannii GMCH18, MDR clinical isolate): 1 µg/mL
- MIC (A. baumannii GMCH 14; A. baumannii GMCH 14, MDR clinical isolate): 1 µg/mL
- MIC [8]: >16 µg/mL
- MIC (E. coli 3185; E. coli 3185, MDR clinical isolate): 0.5 µg/mL
- MIC [9]: 1 µg/mL
- MIC (P. aeruginosa PA3; P. aeruginosa PA3, MDR clinical isolate): 2 µg/mL
- MIC [10]: 0.5 µg/mL
- MIC (P. aeruginosa PA1; P. aeruginosa PA1, MDR clinical isolate): 2 µg/mL
- MIC (P. aeruginosa PA5; P. aeruginosa PA5, MDR clinical isolate): 2 µg/mL
- MIC (K. Pneumoniae GMCH13; K. Pneumoniae GMCH13, MDR clinical isolate): 1 µg/mL
- MIC (K. Pneumoniae 827; K. Pneumoniae 827, MDR clinical isolate): 1 µg/mL
- MIC (E. coli 7210; E. coli 7210, MDR clinical isolate): 1 µg/mL
- MIC (A. baumannii AB2; A. baumannii AB2, MDR clinical isolate): 1 µg/mL
- MIC (E. coli 14363; E. coli 14363, MDR clinical isolate): 0.5 µg/mL
- MIC [11]: 0.5 µg/mL
- MIC (K. Pneumoniae GMCH10; K. Pneumoniae GMCH10, MDR clinical isolate): 1 µg/mL
- MIC [12]: 1 µg/mL
- MIC (E. coli 14084; E. coli 14084, MDR clinical isolate): 0.5 µg/mL
- MIC (K. Pneumoniae 1428; K. Pneumoniae 1428, MDR clinical isolate): 2 µg/mL
- MIC [13]: 1 µg/mL
- MIC (P. aeruginosa PA2; P. aeruginosa PA2, MDR clinical isolate): 2 µg/mL
- Kd [14]: 7.04 µM
- MIC (K. Pneumoniae 1573; K. Pneumoniae 1573, MDR clinical isolate): 1 µg/mL
- MIC (P. aeruginosa PA4; P. aeruginosa PA4, MDR clinical isolate): 1 µg/mL
- MIC [15]: 1 µg/mL
- MIC (K. Pneumoniae GMCH04; K. Pneumoniae GMCH04, MDR clinical isolate): 0.5 µg/mL
- MIC (A. baumannii GMCH05; A. baumannii GMCH05, MDR clinical isolate): 1 µg/mL
- MIC (E. coli 7932; E. coli 7932, MDR clinical isolate): 1 µg/mL
- MIC (K. Pneumoniae GMCH11; K. Pneumoniae GMCH11, MDR clinical isolate): 0.5 µg/mL
